This passage reports mortality and IC50 results from ChEMBL document CHEMBL4431337, “Synthesis and bioactivities of novel pyrazole oxime derivatives containing a 1,2,3-thiadiazole moiety” (Bioorg Med Chem Lett, 2016).

Assay [1] relates to Aphis craccivora. Briefly: Insecticidal activity against Aphis craccivora assessed as mortality at 50 ug/ml pre-incubated with horsebean shoot with aphids for 2 secs and measured 48 hrs post dose by foliar application method. It is filed as functional.
In the next assay the test system is PANC-1. Briefly: Cytotoxicity against human PANC1 cells assessed as inhibition of cell growth after 48 hrs by MTT assay. It is filed as functional, cell-based. The settings on record: PANC-1, 48 h. (Formazan colour is commonly taken as a measure of viable cells.)
Assay [2] relates to Aphis craccivora. Nature of the assay: Insecticidal activity against Aphis craccivora assessed as mortality at 200 ug/ml pre-incubated with horsebean shoot with aphids for 2 secs and measured 48 hrs post dose by foliar application method. It is filed as functional.
For a further assay, the system named is SGC-7901. Briefly: Cytotoxicity against human SGC7901 cells assessed as inhibition of cell growth after 48 hrs by MTT assay. It is filed as functional, cell-based. The settings on record: SGC-7901, 48 h.
The subject of assay [3] is Tetranychus cinnabarinus. Nature of the assay: Acaricidal activity against Tetranychus cinnabarinus assessed as mortality at 50 ug/ml pre-incubated with mite-infested Sieva bean plants for 3 secs and measured 48 hrs post dose. It is filed as functional.
In assay [4] the test system is Tetranychus cinnabarinus. Nature of the assay: Acaricidal activity against Tetranychus cinnabarinus assessed as mortality at 100 ug/ml pre-incubated with mite-infested Sieva bean plants for 3 secs and measured 48 hrs post dose. It is filed as functional.
The test system of assay [5] is Plutella xylostella. Briefly: Insecticidal activity against Plutella xylostella assessed as mortality at 200 ug/ml pre-incubated with cabbage leaves for 2 to 3 secs and measured 48 hrs post dose by leaf disc assay. Format: functional. Conditions: foliar.
In assay [6] the test system is Aphis craccivora. Briefly: Insecticidal activity against Aphis craccivora assessed as mortality at 100 ug/ml pre-incubated with horsebean shoot with aphids for 2 secs and measured 48 hrs post dose by foliar application method. Format: functional.
The subject of the next assay is HCT-116. Briefly: Cytotoxicity against human HCT116 cells assessed as inhibition of cell growth after 48 hrs by MTT assay. The settings on record: HCT-116, 48 h. It is filed as functional, cell-based.
The subject of assay [7] is Plutella xylostella. Nature of the assay: Insecticidal activity against Plutella xylostella assessed as mortality at 100 ug/ml pre-incubated with cabbage leaves for 2 to 3 secs and measured 48 hrs post dose by leaf disc assay. Conditions: foliar. It is filed as functional.
The test system of another assay is Huh-7. Briefly: Cytotoxicity against human HuH7 cells assessed as inhibition of cell growth after 48 hrs by MTT assay. Format: functional, cell-based. The settings on record: Huh-7, 48 h.
The test system of assay [8] is Tetranychus cinnabarinus. Briefly: Acaricidal activity against Tetranychus cinnabarinus assessed as mortality at 200 ug/ml pre-incubated with mite-infested Sieva bean plants for 3 secs and measured 48 hrs post dose. It is filed as functional.
Assay [9] concerns Plutella xylostella. Nature of the assay: Insecticidal activity against Plutella xylostella assessed as mortality at 50 ug/ml pre-incubated with cabbage leaves for 2 to 3 secs and measured 48 hrs post dose by leaf disc assay. Format: functional. The settings on record: foliar.

A value given as a limit tells only on which side of the number the result lay.

The term mortality denotes the percentage killed. Broadly, the IC50 is the concentration that inhibits the measured activity by half.

`Cc1nnsc1CO/N=C/c1c(C)nn(C)c1Oc1cccc(F)c1`: the mortality at 50 µg/mL in the assay with Aphis craccivora [1] was 52%; in the assay on Tetranychus cinnabarinus [3], 0%. The IC50 with PANC-1, in the assay on SGC-7901, with HCT-116 and in the assay with Huh-7 was greater than 50 µM each time. The figures for the mortality at 200 µg/mL with Aphis craccivora [2], in the assay with Plutella xylostella [5] and in the assay on Tetranychus cinnabarinus [8] were 98%, 71% and 80%, respectively. Further, the mortality at 100 µg/mL in the assay on Tetranychus cinnabarinus [4] stood at 50%; in the assay with Aphis craccivora [6], 80%; in the assay with Plutella xylostella [7] it was 0%.
As to `Cc1nnsc1CO/N=C/c1c(C)nn(C)c1Oc1ccc(Br)cc1`, the IC50 was 12.8 µM with PANC-1, 15.2 µM with SGC-7901, 7.19 µM in the assay with HCT-116 and 11.8 µM in the assay on Huh-7. In addition, the mortality at 200 µg/mL was determined as 20% in the assay on Aphis craccivora [2], 100% with Plutella xylostella [5] and 0% in the assay on Tetranychus cinnabarinus [8]. Also, the mortality at 50 µg/mL in the assay on Plutella xylostella [9] came to 43%. In the assay with Plutella xylostella [7], the mortality at 100 µg/mL is 80%.
Regarding `Cc1nnsc1CO/N=C/c1c(C)nn(C)c1Oc1ccc(I)cc1`, the mortality at 50 µg/mL in the assay with Aphis craccivora [1] stood at 41%; in the assay on Plutella xylostella [9] it was 60%; in the assay with Tetranychus cinnabarinus [3] it was 0%. The IC50 in the assay on PANC-1 is greater than 50 µM; with SGC-7901, greater than 50 µM; with HCT-116, 43.8 µM; in the assay with Huh-7, greater than 50 µM. Moreover, the values for the mortality at 200 µg/mL in the assay with Aphis craccivora [2], in the assay on Plutella xylostella [5] and in the assay with Tetranychus cinnabarinus [8] were 95%, 64% and 90%, respectively. Also, the mortality at 100 µg/mL was determined as 60% in the assay on Tetranychus cinnabarinus [4], 70% in the assay on Aphis craccivora [6] and 62% in the assay on Plutella xylostella [7].
In the case of `Cc1nn(C)c(Oc2ccccc2)c1/C=N/OCc1ccc(C(=O)OC(C)(C)C)cc1` [FENPYROXYMATE], the mortality at 50 µg/mL in the assay with Tetranychus cinnabarinus [3] came to 100%. Also, in the assay on Tetranychus cinnabarinus [4], the mortality at 100 µg/mL amounted to 100%. Moreover, the mortality at 200 µg/mL in the assay with Tetranychus cinnabarinus [8] came to 100%.
